Our source for the EC50 values is patent US8822430B2 (Gilead Sciences, Inc., priority 2009, dated 2014).

Where only a bound is given, the exact number is not on record here.

The experiment concerns HCV 1b RLuc cells (dicistronic genotype 1b Con1 replicon). The experiment is described as follows: Renilla luciferase (RLuc)-based HCV replicon reporter assay. Type of experiment: cell-based, HCV genotype 1b. As to conditions: Hepatitis C virus, 72 h, HCV 1b RLuc replicon, 72 hours; read-out: Activity (antiviral potency [EC50]). Summed up:
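HCV 1b RLuc cells carrying a dicistronic genotype 1b Con1 replicon were treated with serially diluted compounds from 10 mM DMSO stocks. After 72 h, cells were lysed and Renilla luciferase activity measured. EC50 was obtained by non-linear regression.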
In general terms: Replicon systems follow genome replication, usually without infectious particles.

The EC50 is the midpoint of the concentration-response curve. For `COC(=O)N[C@@H](C)C(=O)N1CCC[C@H]1c1ncc(-c2ccc3c(c2)sc2cc(-c4cnc([C@@H]5[C@H]6CC[C@H](C6)N5C(=O)[C@H](C)NC(=O)OC)[nH]4)ccc23)[nH]1`, the EC50 was 0.0185 nM. Consider `COC(=O)N[C@H](C(=O)N1CCC[C@H]1c1ncc(-c2ccc(C#Cc3ccc(-c4cnc([C@@H]5CN(C(=O)OC)CCN5C(=O)[C@@H](NC(=O)OC)C(C)C)[nH]4)cc3)cc2)[nH]1)C(C)C`, for which the concentration for a half-maximal effect (EC50) was found to be 0.256 nM. For `COC(=O)N[C@H](C(=O)N1C[C@@H](C#N)C[C@H]1c1ncc(-c2ccc(-c3ccc4cc(-c5cnc([C@@H]6CC7(CC7)CN6C(=O)[C@@H](NC(=O)OC)C(C)C)[nH]5)ccc4c3)cc2)[nH]1)C(C)C` the value was 0.0069 nM; for `COC(=O)N[C@H](C(=O)N1CCC[C@H]1c1nc2ccc(C#Cc3ccc4nc([C@@H]5CCCN5C(=O)[C@@H](NC(=O)OC)C(C)C)[nH]c4c3)cc2[nH]1)C(C)C`, 0.139 nM; for `COC(=O)N[C@H](C(=O)N1CC2(CC2)C[C@H]1c1ncc(-c2ccc3c(c2)C2(CC2)c2cc(-c4ccc5nc([C@@H]6[C@H]7CC[C@H](C7)N6C(=O)[C@@H](NC(=O)OC)C(C)C)[nH]c5c4)ccc2-3)[nH]1)C(C)C`, 0.0073 nM. On to `COC(=O)N[C@H](C(=O)N1CCC[C@H]1c1ncc(-c2ccc3c(c2)CCc2cc(-c4ccc5nc([C@@H]6CCCN6C(=O)[C@@H](NC(=O)OC)C(C)C)[nH]c5c4)ccc2-3)[nH]1)C(C)C`, for which the EC50 stood at 0.0037 nM. As for `COC(=O)N[C@H](C(=O)N1CCC[C@H]1c1ncc(-c2ccc3cc(-c4ccc(-c5cnc([C@@H]6CCCN6C(=O)[C@@H](OC(=O)N(C)C)c6ccccc6)[nH]5)cc4)ccc3c2)[nH]1)C(C)C`, the EC50 was found to be 0.0794 nM. On to `COC(=O)N[C@H](C(=O)N1CCC[C@H]1c1ncc(-c2ccc(-c3ccc(-c4cnc(CN5CCC[C@H](NC(=O)OC(C)(C)C)C5=O)[nH]4)cc3)cc2)[nH]1)C(C)C`, for which the EC50 stood at 0.058 nM. For `COC(=O)N[C@H](C(=O)N1CCC[C@H]1c1ncc(-c2ccc3c(c2)CCc2cc(-c4ccc5nc([C@@H]6[C@H]7CC[C@H](C7)N6C(=O)[C@@H](NC(=O)OC)C(C)C)[nH]c5c4)ccc2-3)[nH]1)C(C)C` the value was 0.0054 nM; for `COC(=O)N[C@H](C(=O)N1CCC[C@H]1c1ncc(-c2ccc(-c3ccc(-c4ccc5nc([C@@H]6CCN6C(=O)[C@@H](NC(=O)OC)C(C)C)[nH]c5c4)cc3)cc2)[nH]1)C(C)C`, 0.0282 nM; for `COC(=O)N[C@H](C(=O)N1CCC[C@H]1c1nc(C(=O)N2CCC3(CC2)CCN(C(=O)c2c[nH]c([C@@H]4CCCN4C(=O)[C@@H](NC(=O)OC)C(C)C)n2)CC3)c[nH]1)C(C)C`, greater than 44.4 nM. For `COC(=O)N[C@H](C(=O)N1CCC[C@H]1C1=NC(=O)C(C)(c2ccc(-c3ccc(-c4cnc([C@@H]5CCCN5C(=O)[C@@H](NC(=O)OC)C(C)C)[nH]4)cc3)cc2)N1)C(C)C` (stereo partly shown) the value was greater than 44.4 nM; for `COC(=O)N[C@H](C(=O)N1CCC[C@H]1c1ncc(C#Cc2ccc(-c3ccc(-c4cnc([C@@H]5CCCN5C(=O)[C@@H](NC(=O)OC)C(C)C)[nH]4)cc3)cc2)[nH]1)C(C)C`, 0.0115 nM.

Turning to `COC(=O)N[C@H](C(=O)N1CCC[C@H]1c1ncc(-c2cc3c(OC)c4sc(-c5cnc([C@@H]6CCCN6C(=O)[C@@H](NC(=O)OC)C(C)C)[nH]5)cc4c(OC)c3s2)[nH]1)C(C)C`, the EC50 was determined as 0.0161 nM.

As to `COC(=O)N[C@H](C(=O)N1CCC[C@H]1c1nc2ccc(-c3ccc4nc([C@@H]5CCCN5C(=O)[C@@H](NC(=O)OC)C(C)C)[nH]c4c3)cc2[nH]1)C(C)C`, the 50% effective concentration (EC50) came to 35.5 nM. For `COC(=O)N[C@H](C(=O)N1[C@@H]2CC[C@@H](C2)[C@H]1c1nc2ccc(-c3ccc4c(c3)C(=O)c3cc(-c5cnc([C@@H]6CC7(CC7)CN6C(=O)[C@H](NC(=O)OC)C(C)C)[nH]5)ccc3-4)cc2[nH]1)C(C)C` the value was 0.005 nM.

With `COC(=O)N[C@H](C(=O)N1CCC[C@H]1c1ncc(-c2ccc3c(c2)sc2cc(-c4ccc5nc([C@@H]6[C@H]7CC[C@H](C7)N6C(=O)[C@@H](NC(=O)OC)C(C)C)[nH]c5c4)ccc23)[nH]1)C(C)C`, the EC50 is 0.0037 nM. For `COC(=O)N[C@H](C(=O)N1CCC[C@H]1c1ncc(-c2ccc(C#CC#Cc3ccc(-c4cnc([C@@H]5CCCN5C(=O)[C@@H](NC(=O)OC)C(C)C)[nH]4)cc3)cc2)[nH]1)C(C)C`, the EC50 stood at 0.384 nM. On to `COC(=O)N[C@@H](C)C(=O)N1[C@@H]2CC[C@@H](C2)[C@H]1c1ncc(-c2ccc3c(c2)CCc2cc(-c4cnc([C@@H]5CCCN5C(=O)[C@@H](NC(=O)OC)C(C)C)[nH]4)ccc2-3)[nH]1`, for which the concentration giving a half-maximal response (EC50) turned out to be 0.0126 nM.

`COC(=O)N[C@H](C(=O)N1CCC[C@H]1c1ncc(-c2ccc3c(c2)Nc2ccc(-c4cnc([C@@H]5CCCN5C(=O)[C@@H](NC(=O)OC)C(C)C)[nH]4)cc2S3)[nH]1)C(C)C`: the concentration for a half-maximal effect (EC50) turned out to be 1.72 nM. As for `COC(=O)N[C@H]1CC[C@H]2CC[C@@H](c3ncc(-c4ccc(-c5ccc(-c6cnc([C@@H]7CCCN7C(=O)[C@@H](NC(=O)OC)C(C)C)[nH]6)cc5)cc4)[nH]3)N2C1=O`, the EC50 was 0.156 nM. As to `COC(=O)N[C@@H](C)C(=O)N1CCC[C@H]1c1ncc(-c2ccc3cc(-c4ccc5cc(-c6cnc([C@@H]7[C@H]8CC[C@H](C8)N7C(=O)[C@@H](NC(=O)OC)C(C)C)[nH]6)ccc5c4)ccc3c2)[nH]1`, the concentration giving a half-maximal response (EC50) was determined as 1.15 nM. For `COC(=O)N[C@@H](C)C(=O)N1[C@@H]2CC[C@@H](C2)[C@H]1c1nc2ccc(-c3ccc4c(c3)C(F)(F)c3cc(-c5cnc([C@@H]6CC7(CC7)CN6C(=O)[C@@H](NC(=O)OC)C(C)C)[nH]5)ccc3-4)cc2[nH]1` the value was 0.0036 nM; for `COC(=O)N[C@H](C(=O)N1[C@@H]2CC[C@@H](C2)[C@H]1c1ncc(-c2ccc3cc(-c4ccc(-c5cnc([C@@H]6CC7(CC7)CN6C(=O)[C@@H](NC(=O)OC)C6CC6)[nH]5)cc4)ccc3c2)[nH]1)C(C)C`, 0.286 nM; for `COC(=O)N[C@H](C(=O)N1CC2(CC2)C[C@H]1c1ncc(-c2ccc(-c3ccc4cc(-c5cnc([C@@H]6[C@H]7CC[C@H](C7)N6C(=O)[C@@H](NC(=O)OC)C6CC6)[nH]5)ccc4c3)cc2)[nH]1)C(C)C`, 0.0534 nM. As for `COC(=O)N[C@H](C(=O)N1CCC[C@H]1c1ncc(-c2ccc3cc(-c4ccc(-c5cnc([C@@H]6CCCN6C(=O)[C@H](NC(=O)OC)c6ccc(F)cc6)[nH]5)cc4)ccc3c2)[nH]1)C(C)C`, the half-maximal effective concentration (EC50) was found to be 0.0142 nM. The figure for `COC(=O)N[C@H](C(=O)N1CCC[C@H]1c1ncc(C#Cc2ccc3cc(-c4cnc([C@@H]5CCCN5C(=O)[C@@H](NC(=O)OC)C(C)C)[nH]4)ccc3c2)[nH]1)C(C)C` is 0.0106 nM; for `COC(=O)N[C@H](C(=O)N1[C@@H]2CC[C@@H](C2)[C@H]1c1ncc(-c2ccc(-c3ccc4cc(-c5cnc([C@@H]6CC7(CC7)CN6C(=O)[C@@H](NC(=O)OC)C(C)OC)[nH]5)ccc4c3)cc2)[nH]1)C(C)C` (stereo partly shown) it is 0.0077 nM. For the molecule `COC(=O)N[C@@H](Cc1ccccc1)C(=O)N1CCC[C@H]1c1ncc(-c2ccc(-c3ccc4cc(-c5cnc([C@@H]6CCCN6C(=O)[C@@H](NC(=O)OC)C(C)C)[nH]5)ccc4c3)cc2)[nH]1`, the concentration giving a half-maximal response (EC50) was determined as 0.0181 nM. For `COC(=O)N[C@H](C(=O)N1CCC[C@H]1c1ncc(-c2ccc(-c3ccc(-c4ccc5nc([C@@H]6[C@H]7CC[C@H](C7)N6C(=O)[C@@H](NC(=O)OC)C(C)C)[nH]c5c4)cc3)cc2)[nH]1)C(C)C` the value was 0.006 nM; for `COC(=O)N[C@H](C(=O)N1CCC[C@H]1c1ncc(C23CCC(c4ccc(-c5cnc([C@@H]6CCCN6C(=O)[C@H](NC(=O)OC)C(C)C)[nH]5)cc4)(CC2)CC3)[nH]1)C(C)C`, 39.7 nM.

In the case of `CCC(=O)N[C@H](C(=O)N1CC2(CC2)C[C@H]1c1ncc(-c2ccc(-c3ccc(-c4cnc([C@@H]5CCCN5C(=O)[C@@H](NC(=O)OC)C(C)C)[nH]4)cc3)cc2)[nH]1)C(C)C`, the EC50 was determined as 0.013 nM. In the case of `COC(=O)N[C@H](C(=O)N1CCC[C@H]1c1ncc(-c2ccc3cc(-c4ccc(-c5cnc([C@@H]6CCCN6C(=O)[C@H](NC(=O)OC)c6ccsc6)[nH]5)cc4)ccc3c2)[nH]1)C(C)C`, the EC50 was 0.0157 nM. The figure for `COC(=O)N[C@H](C(=O)N1C[C@@H](Oc2cnccn2)C[C@H]1c1ncc(-c2ccc(-c3ccc4cc(-c5cnc([C@@H]6CC7(CC7)CN6C(=O)[C@@H](NC(=O)OC)C(C)C)[nH]5)ccc4c3)cc2)[nH]1)C(C)C` is 0.014 nM; for `COC(=O)N[C@@H](CCOC(F)F)C(=O)N1[C@@H]2CC[C@@H](C2)[C@H]1c1ncc(-c2ccc(-c3ccc4cc(-c5cnc([C@@H]6CC7(CC7)CN6C(=O)[C@@H](NC(=O)OC)C(C)C)[nH]5)ccc4c3)cc2)[nH]1` it is 0.008 nM; for `COC(=O)N[C@H](C(=O)N1[C@@H]2CC[C@@H](C2)[C@H]1c1ncc(-c2ccc(-c3ccc4cc(-c5cnc([C@@H]6CC7(CC7)CN6C(=O)[C@@H](NC(=O)OC)C(C)C)[nH]5)ccc4c3)cc2)[nH]1)c1ccccc1` it is 0.0071 nM. The figure for `COC(=O)N[C@H](C(=O)N1CC2(CC2)C[C@H]1c1ncc(-c2ccc(-c3ccc4cc(-c5cnc([C@@H]6C[C@H](C#N)CN6C(=O)[C@@H](NC(=O)OC)C(C)(C)C)[nH]5)ccc4c3)cc2)[nH]1)C(C)C` is 0.0165 nM; for `COC(=O)NC(C(=O)N1CCC[C@H]1c1ncc(-c2ccc3cc(-c4ccc(-c5cnc([C@@H]6CCCN6C(=O)[C@@H](NC(=O)OC)C(C)C)[nH]5)cc4)ccc3c2)[nH]1)c1ccccc1` (stereo partly shown) it is 0.0092 nM; for `COC(=O)N[C@@H](CCC#N)C(=O)N1CC2(CC2)C[C@H]1c1ncc(-c2ccc3cc(-c4ccc(-c5cnc([C@@H]6[C@H]7CC[C@H](C7)N6C(=O)[C@@H](NC(=O)OC)C(C)C)[nH]5)cc4)ccc3c2)[nH]1` it is 0.0159 nM. As for `COC(=O)N[C@H](C(=O)N1[C@@H]2CC[C@@H](C2)[C@H]1c1nc2ccc(-c3ccc(-c4ccc(-c5ccc6nc([C@@H]7[C@H]8CC[C@H](C8)N7C(=O)[C@@H](NC(=O)OC)C(C)C)[nH]c6c5)cc4)cc3)cc2[nH]1)C(C)C`, the EC50 was 0.283 nM.
